Our source for the TGI and GI50 values is PubChem BioAssay (NCI).

Some test systems named below: NCI-H460 lung; NCI-H23 lung; SF-539 CNS; COLO 205 colon; SR leukemia; DLD-1 colon; NCI/ADR-RES ovarian; LOX IMVI melanoma; DU-145 prostate.
Assay in all cases: DTP human tumour cell line panel, 48 h

Molecules are shown by their SMILES.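 Cultured in 96-well plates, cells were exposed to test compound for 48 hours across five concentrations. The concentration for 50% growth inhibition is given as GI50. TGI: concentration producing complete growth inhibition.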 Where only a bound is given, the exact number is not on record here.

Regarding `O=C(O)C1=C(O)C(C(=O)O)C23CCCCCCCCCCC12C(C(=O)O)C(O)=C3C(=O)O` (centres undefined), the TGI with NCI-H460 lung, with NCI-H23 lung, with SF-539 CNS, in the test with COLO 205 colon, with SR leukemia and in the test on DLD-1 colon was greater than 100 µM each time.

Regarding `C=C(CN1C(=O)CN(C)C1=O)c1ccc(C(=O)Nc2ccccc2N)cc1`, the GI50 was 15.9 µM in the test with NCI-H460 lung; 26.8 µM with NCI-H23 lung; 36.2 µM with SF-539 CNS; 9.24 µM in the test with COLO 205 colon; 1.41 µM in the test on SR leukemia; 12.5 µM with NCI/ADR-RES ovarian. Besides, the figures for the GI50 in the test on LOX IMVI melanoma and with DU-145 prostate were 18.2 µM and 25.9 µM, respectively. The TGI in the test on NCI-H460 lung is greater than 100 µM; in the test with NCI-H23 lung, greater than 100 µM; in the test on SF-539 CNS, greater than 100 µM; in the test with COLO 205 colon it was 44.8 µM; in the test on SR leukemia, 10.7 µM; with NCI/ADR-RES ovarian, greater than 100 µM. In addition, the TGI with LOX IMVI melanoma is 69.9 µM; in the test with DU-145 prostate, greater than 100 µM.

Regarding `CN(CCO)CC[C@H](CSc1ccccc1)Nc1ccc(S(=O)(=O)NC(=O)c2ccc(N3CCC([C@@H](O)c4ccccc4-c4ccc(Cl)cc4)CC3)cc2)cc1S(=O)(=O)C(F)(F)F`, the GI50 is 4.74 µM with NCI-H460 lung; 17.7 µM in the test with NCI-H23 lung; 2.67 µM with SF-539 CNS; 1.46 µM with COLO 205 colon; 2.23 µM in the test with SR leukemia; greater than 100 µM in the test with NCI/ADR-RES ovarian. Also, the values for the GI50 with LOX IMVI melanoma and in the test on DU-145 prostate were 1.43 µM and 21 µM, respectively. Also, the TGI is 19.9 µM with NCI-H460 lung; greater than 100 µM in the test with NCI-H23 lung; 8 µM in the test with SF-539 CNS; 4.5 µM in the test on COLO 205 colon; 35.7 µM with SR leukemia; greater than 100 µM in the test with NCI/ADR-RES ovarian. In addition, the TGI in the test on LOX IMVI melanoma is 2.97 µM; with DU-145 prostate it was greater than 100 µM.

In the case of `C[C@@]1(C(=O)O)CCC[C@]2(C)C1CC[C@@]13CC(=O)[C@@](CO)(CC[C@]12O)C3` (some centres undefined), the GI50 in the test on NCI-H460 lung was greater than 100 µM; in the test on NCI-H23 lung, greater than 100 µM; in the test on SF-539 CNS, greater than 100 µM; in the test with COLO 205 colon it was 6.16 µM; in the test on SR leukemia it was greater than 100 µM; with NCI/ADR-RES ovarian, greater than 100 µM. Further, the GI50 in the test on LOX IMVI melanoma and in the test with DU-145 prostate was greater than 100 µM throughout. Also, the TGI with NCI-H460 lung, in the test on NCI-H23 lung, in the test with SF-539 CNS, with COLO 205 colon, in the test with SR leukemia and with NCI/ADR-RES ovarian was greater than 100 µM each time. Further, the TGI in the test with LOX IMVI melanoma and with DU-145 prostate was greater than 100 µM throughout.

As for `CCOC(=O)Nc1ccc2c(c1)/C(=N\NC(N)=S)c1ccccc1-2`, the GI50 is 4.33 µM in the test with NCI-H460 lung; 2.95 µM with NCI-H23 lung; 3.75 µM in the test on SF-539 CNS; 3.74 µM in the test with COLO 205 colon; 3.13 µM in the test on SR leukemia; 2.75 µM in the test on NCI/ADR-RES ovarian. The GI50 in the test with LOX IMVI melanoma was 3.52 µM; in the test with DU-145 prostate, 5.15 µM. Moreover, the TGI with NCI-H460 lung stood at 23.1 µM; with NCI-H23 lung, 12.6 µM; in the test with SF-539 CNS it was 17.3 µM; in the test with COLO 205 colon, 15 µM; with SR leukemia, 24.3 µM; in the test on NCI/ADR-RES ovarian, 9.4 µM. Also, the TGI with LOX IMVI melanoma turned out to be 20.2 µM; with DU-145 prostate, 20 µM.

With `COc1ccc(/C=C/C(=O)c2cc(OC)c(OC)c(OC)c2)cc1OCc1cn(Cc2ccc(F)cc2)nn1`, the GI50 in the test on NCI-H460 lung was 3.3 µM; with NCI-H23 lung, 18.9 µM; in the test on SF-539 CNS it was 2.49 µM; in the test on COLO 205 colon it was 2.98 µM; with SR leukemia, 0.843 µM; in the test on NCI/ADR-RES ovarian, 2.99 µM. Further, the GI50 with LOX IMVI melanoma was 2.75 µM; in the test on DU-145 prostate, 2.59 µM. The TGI with NCI-H460 lung was 15.4 µM; in the test on NCI-H23 lung, 64.2 µM; in the test with SF-539 CNS it was 7.83 µM; in the test on COLO 205 colon, 8.38 µM; in the test on SR leukemia, greater than 100 µM; in the test on NCI/ADR-RES ovarian it was greater than 100 µM. In addition, the TGI with LOX IMVI melanoma was determined as 18.7 µM; with DU-145 prostate, 6.64 µM.

In the case of `C=C1C(=O)O[C@H]2[C@H]1CC/C(CNC(=O)/C=C/c1cc(OC)c(OC)c(OC)c1)=C\CC[C@@]1(C)O[C@@H]21`, the GI50 in the test on NCI-H460 lung was 9.19 µM; in the test on NCI-H23 lung, 1.58 µM; in the test with SF-539 CNS, 2 µM; in the test on COLO 205 colon, 0.618 µM; with SR leukemia, 0.383 µM; with NCI/ADR-RES ovarian it was 24.4 µM. Further, the GI50 is 1.28 µM in the test with LOX IMVI melanoma and 4.95 µM with DU-145 prostate. The TGI in the test with NCI-H460 lung is 24.5 µM; with NCI-H23 lung it was 3.58 µM; with SF-539 CNS, 5.93 µM; with COLO 205 colon, 2.45 µM; in the test on SR leukemia it was 9.38 µM; in the test on NCI/ADR-RES ovarian it was greater than 100 µM. The TGI is 2.63 µM in the test on LOX IMVI melanoma and 17.3 µM in the test with DU-145 prostate.

Take `CCCCON(OC(=O)c1ccc2ccccc2c1)C(=O)c1ccccc1`: the GI50 in the test with NCI-H460 lung was greater than 100 µM; in the test with NCI-H23 lung, 90.2 µM; with SF-539 CNS, greater than 100 µM; with COLO 205 colon it was greater than 100 µM; with SR leukemia it was 31.5 µM; with NCI/ADR-RES ovarian, greater than 100 µM. Further, the GI50 in the test with LOX IMVI melanoma was 25.3 µM; with DU-145 prostate it was greater than 100 µM. The TGI in the test on NCI-H460 lung is greater than 100 µM; with NCI-H23 lung, greater than 100 µM; in the test with SF-539 CNS, greater than 100 µM; in the test with COLO 205 colon, greater than 100 µM; in the test with SR leukemia, 77.1 µM; in the test with NCI/ADR-RES ovarian it was greater than 100 µM. Moreover, the figures for the TGI in the test on LOX IMVI melanoma and in the test on DU-145 prostate were 72 µM and greater than 100 µM, respectively.

As to `O=C(O)CCN(CCCCN(CCC(=O)O)CCC(=O)O)CCC(=O)O`, the TGI in the test on NCI-H460 lung, in the test on NCI-H23 lung, in the test with SF-539 CNS, in the test with COLO 205 colon, in the test with LOX IMVI melanoma and with DLD-1 colon was greater than 100 µM in each case.

Regarding `Cc1c[n+](=O)c2ccccc2n1[O-]`, the TGI with NCI-H460 lung, in the test on NCI-H23 lung, in the test on SF-539 CNS, with COLO 205 colon, in the test with SR leukemia and in the test on NCI/ADR-RES ovarian was greater than 100 µM each time. Besides, the TGI in the test with LOX IMVI melanoma and in the test with DU-145 prostate was greater than 100 µM throughout.

As for `Cc1cc(CC(=O)NCCO)n(CCO)c(=O)c1`, the TGI in the test on NCI-H460 lung, with NCI-H23 lung, in the test with SF-539 CNS, in the test on COLO 205 colon, in the test on SR leukemia and with LOX IMVI melanoma was greater than 100 µM in each case. In addition, the TGI with DLD-1 colon is greater than 100 µM.

For the molecule `COc1ncnc2c(-c3ccccc3)cn(COCc3ccccc3)c12`, the GI50 was 3.54 µM with NCI-H460 lung; 3.02 µM with NCI-H23 lung; 11.8 µM in the test with SF-539 CNS; 2.69 µM in the test on COLO 205 colon; 2.79 µM with SR leukemia; 3.17 µM in the test on NCI/ADR-RES ovarian. Besides, the figures for the GI50 in the test with LOX IMVI melanoma and with DU-145 prostate were 3.27 µM and 10.4 µM, respectively. Besides, the TGI in the test with NCI-H460 lung was 23 µM; in the test with NCI-H23 lung it was greater than 100 µM; in the test on SF-539 CNS it was greater than 100 µM; with COLO 205 colon, 7.73 µM; in the test on SR leukemia it was 43.2 µM; in the test with NCI/ADR-RES ovarian it was 19.1 µM. Also, the TGI in the test on LOX IMVI melanoma was 14.7 µM; in the test with DU-145 prostate, greater than 100 µM.

For `COc1ccc(/C=N/N=C(\N)NO)cc1O`, the TGI in the test on NCI-H460 lung is greater than 100 µM; in the test with NCI-H23 lung it was greater than 100 µM; in the test on SF-539 CNS, 94.4 µM; in the test with COLO 205 colon it was greater than 100 µM; in the test on LOX IMVI melanoma, greater than 100 µM; with DLD-1 colon, greater than 100 µM.

As for `Oc1c(-c2nnc(-c3ccccc3Cl)o2)sc2nnc(-c3ccccc3)c(-c3ccccc3)c12`, the GI50 is 1.73 µM with NCI-H460 lung; 4.87 µM with NCI-H23 lung; 4.45 µM with SF-539 CNS; 4.4 µM with COLO 205 colon; 3.96 µM in the test on SR leukemia; 1.09 µM with NCI/ADR-RES ovarian. The GI50 was 2.55 µM in the test with LOX IMVI melanoma and 8.26 µM with DU-145 prostate. Besides, the TGI in the test on NCI-H460 lung is 15.3 µM; in the test with NCI-H23 lung, greater than 100 µM; in the test on SF-539 CNS, 70.4 µM; with COLO 205 colon, greater than 100 µM; in the test with SR leukemia, greater than 100 µM; in the test on NCI/ADR-RES ovarian, greater than 100 µM. For the same molecule, the figures for the TGI with LOX IMVI melanoma and in the test on DU-145 prostate were 21.8 µM and greater than 100 µM, respectively.

As to `O=c1[nH]c(=O)c2cn[nH]c2[nH]1`, the GI50 in the test on NCI-H460 lung, in the test with NCI-H23 lung, in the test with SF-539 CNS, in the test with COLO 205 colon, with SR leukemia and with NCI/ADR-RES ovarian was greater than 100 µM in each case. Also, the GI50 in the test on LOX IMVI melanoma and with DU-145 prostate was greater than 100 µM in each case. The TGI in the test on NCI-H460 lung, with NCI-H23 lung, in the test on SF-539 CNS, with COLO 205 colon, with SR leukemia and with NCI/ADR-RES ovarian was greater than 100 µM each time. Besides, the TGI in the test with LOX IMVI melanoma and with DU-145 prostate was greater than 100 µM throughout.

In the case of `CCCCCCCCNc1cc2c3c(c1)CCCN3CCC2`, the GI50 is 2.66 µM with NCI-H460 lung; 1.79 µM with NCI-H23 lung; 2.81 µM with SF-539 CNS; 1.87 µM in the test with COLO 205 colon; 0.551 µM in the test on SR leukemia; 19.7 µM in the test on NCI/ADR-RES ovarian. The GI50 with LOX IMVI melanoma is 1.57 µM; with DU-145 prostate, 2.61 µM. Also, the TGI is 9.18 µM in the test on NCI-H460 lung; 18.1 µM in the test on NCI-H23 lung; 17 µM in the test with SF-539 CNS; 4.76 µM with COLO 205 colon; greater than 100 µM in the test with SR leukemia; greater than 100 µM with NCI/ADR-RES ovarian. For the same molecule, the TGI in the test on LOX IMVI melanoma was 28.5 µM; with DU-145 prostate, 12.8 µM.
